According to patent publication US10010560B2, “Small molecule HSP70 inhibitors” (THE TRUSTEES OF THE UNIVERSITY OF PENNSYLVANIA, priority 2014, dated 2018):
Where “and” joins values, the source holds several entries; their conditions need not be identical. Identical values can stand only once.

Experiments:
ADP-HSP70 (WT, aa 1-641) = molecular target: T1, ADP-HSP70 (WT, aa 1-641) (Homo sapiens, UniProt P0DMV8, E110D); assay: ITC binding to ADP-bound full-length HSP70; conditions: ITC, wild-type full-length ADP-bound HSP70
T1 construct: Full-length recombinant proteins of HSP70 (aa 1-641) as well as DnaK (aa 1-638); His6 (N); made in house; host or cells: E. coli BL21 Star (DE3)
From the text: The human stress-inducible HSP70 (residues 1-641 or 386-616 of SEQ ID NO: 2) and E. coli DnaK (residues 1-638, 389-607, or 393-507 of SEQ ID NO: 4) were cloned into the pET25 vector (EMD Millipore Chemicals, Inc., Billerica, Mass., USA) between the NdeI and XhoI restriction sites. The full-length HSP70 and DnaK mutants were constructed by PCR-based site-directed mutagenesis using the QuikChange™ Site-Directed Mutagenesis Kit (Agilent Technologies, Inc., Santa Clara, Calif., USA). All plasmid inserts were verified by DNA sequencing. All HSP70 and DnaK variants were produced with a N-terminal His6-tag in the E. coli BL21 Star (DE3) strain (Invitrogen catalog number C6010-03). The resulting strains were grown at 37° C. in LB medium containing 50 μg/mL of carbenicillin (Sigma-Aldrich Co., St. Louis, Mo., USA). At an OD600 about 0.3 to about 0.5, protein expression was induced with 0.5 mM isopropyl-β-D-thiogalactopyranoside (IPTG), and cells were subsequently grown at 25° C. for about 16 h. Cells were collected by centrifugation and resuspended in the Bugbuster® Master Mix (EMD Millipore Chemicals catalog number 71456-4), supplemented with protease inhibitors, 1 mM diethiothreitol (DTT) and 20 mM imidazole. The His6-tagged fusion proteins were isolated on Ni^2+-chelating resins (Ni-NTA Superflow, Qiagen catalog number 30410) by standard procedures. When necessary, size-exclusion chromatography on a Superdex® 200 or a Superose® 6 10/300 GL columns (GE Healthcare) analytical column pre-equilibrated with 1× Dulbecco's Phosphate Buffered Saline (DPBS—Invitrogen 14190-136), 1 mM Tris-HCl (pH 7.4) or 10 mM Tris-HCl (pH 7) was used as the final purification step. The purified DnaK proteins were dialyzed thoroughly against 1× DPBS with 5 mM DTT at 4° C., for crystallization trials involving the small molecule inhibitor PET-16. For isothermal titration calorimetry studies, all HSP70 and DnaK variants were dialyzed extensively against the buffers as noted below under the section entitled “Isothermal Titration calorimetry Studies”. The dialyzed proteins were subsequently microcentrifugated at 15,000×g for 5 min at 4° C. and aliquots of the soluble proteins were stored at −80° C.
(§1) All ITC experiments were performed using a MicroCal VP-ITC isothermal titration calorimeter (MicroCal). Both full-length HSP70 and DnaK proteins and DnaK (aa 393-507) proteins were prepared in 1 mM Tris-HCl (pH 7.4) buffer containing 3% dimethylsulfoxide (DMSO). The HSP70 (aa 386-616) protein was prepared in buffer containing 3% DMSO and 10 mM Tris-HCl, pH 7. The syringe was loaded with purified protein in either 1 mM Tris-HCl (pH 7.4) buffer containing 3% DMSO or 10 mM Tris-HCl (pH 7) buffer containing 3% DMSO. The sample cell of the calorimeter was loaded with PES, PET-16 or NRLLLTG (SEQ ID NO: 7) prepared in the same buffer. All solutions were degassed for 5 min.
The titrations involving the full-length purified proteins were performed at 25° C. with injection volumes of 12 μL and a spacing of 300 s. The titrations involving the purified HSP70 (aa 386-616) and DnaK (aa 393-507) were performed at 42° C. with injection volumes of 12 μL and a spacing of 300 s. Heat from the pre-injection was not used during fitting. The data were fit using a one-site binding model available in the Origin® ITC data analysis software (MicroCal Origin® V5.0, MicroCal Software, Northampton, Mass.). Error values obtained from the MicroCal Origin® V5.0 software were averaged and reported. […]

ATP-HSP70 (WT) = molecular target: T2, ATP-HSP70 (WT) (Homo sapiens, UniProt P0DMV8, E110D); assay: ITC binding to ATP-bound full-length HSP70; conditions: wild-type full-length ATP-bound HSP70
T2 construct: Full-length recombinant proteins of HSP70 (aa 1-641) as well as DnaK (aa 1-638); His6 (N); made in house; host or cells: E. coli BL21 Star (DE3)
From the text: The human stress-inducible HSP70 (residues 1-641 or 386-616 of SEQ ID NO: 2) and E. coli DnaK (residues 1-638, 389-607, or 393-507 of SEQ ID NO: 4) were cloned into the pET25 vector (EMD Millipore Chemicals, Inc., Billerica, Mass., USA) between the NdeI and XhoI restriction sites. The full-length HSP70 and DnaK mutants were constructed by PCR-based site-directed mutagenesis using the QuikChange™ Site-Directed Mutagenesis Kit (Agilent Technologies, Inc., Santa Clara, Calif., USA). All plasmid inserts were verified by DNA sequencing. All HSP70 and DnaK variants were produced with a N-terminal His6-tag in the E. coli BL21 Star (DE3) strain (Invitrogen catalog number C6010-03). The resulting strains were grown at 37° C. in LB medium containing 50 μg/mL of carbenicillin (Sigma-Aldrich Co., St. Louis, Mo., USA). At an OD600 about 0.3 to about 0.5, protein expression was induced with 0.5 mM isopropyl-β-D-thiogalactopyranoside (IPTG), and cells were subsequently grown at 25° C. for about 16 h. Cells were collected by centrifugation and resuspended in the Bugbuster® Master Mix (EMD Millipore Chemicals catalog number 71456-4), supplemented with protease inhibitors, 1 mM diethiothreitol (DTT) and 20 mM imidazole. The His6-tagged fusion proteins were isolated on Ni^2+-chelating resins (Ni-NTA Superflow, Qiagen catalog number 30410) by standard procedures. When necessary, size-exclusion chromatography on a Superdex® 200 or a Superose® 6 10/300 GL columns (GE Healthcare) analytical column pre-equilibrated with 1× Dulbecco's Phosphate Buffered Saline (DPBS—Invitrogen 14190-136), 1 mM Tris-HCl (pH 7.4) or 10 mM Tris-HCl (pH 7) was used as the final purification step. The purified DnaK proteins were dialyzed thoroughly against 1× DPBS with 5 mM DTT at 4° C., for crystallization trials involving the small molecule inhibitor PET-16. For isothermal titration calorimetry studies, all HSP70 and DnaK variants were dialyzed extensively against the buffers as noted below under the section entitled “Isothermal Titration calorimetry Studies”. […]

[1] = tested on: melanoma tumor cell line WM989; assay: Combination with BRAF inhibitor Vemurafenib, viability; assay type: cell-based, human
From the text: FIG. 6 is a line graph illustrating that PET-16 synergizes with the BRAF inhibitor Vemurafenib to reduce the viability of the melanoma tumor cell line WM989 (▪). WM989 cells treated singularly with Vemurafenib are depicted by (●). No synergy was detected between Vemurafenib and PES-Cl.

HSP70 (aa 386-616) = molecular target: T3, HSP70 (aa 386-616) (Homo sapiens, UniProt P0DMV8); assay: ITC binding to C-terminal domain of HSP70; conditions: in words
T3 construct: His6 (N); made in house; host or cells: E. coli BL21 Star (DE3)
From the text: The human stress-inducible HSP70 (residues 1-641 or 386-616 of SEQ ID NO: 2) and E. coli DnaK (residues 1-638, 389-607, or 393-507 of SEQ ID NO: 4) were cloned into the pET25 vector (EMD Millipore Chemicals, Inc., Billerica, Mass., USA) between the NdeI and XhoI restriction sites. The full-length HSP70 and DnaK mutants were constructed by PCR-based site-directed mutagenesis using the QuikChange™ Site-Directed Mutagenesis Kit (Agilent Technologies, Inc., Santa Clara, Calif., USA). All plasmid inserts were verified by DNA sequencing. All HSP70 and DnaK variants were produced with a N-terminal His6-tag in the E. coli BL21 Star (DE3) strain (Invitrogen catalog number C6010-03). The resulting strains were grown at 37° C. in LB medium containing 50 μg/mL of carbenicillin (Sigma-Aldrich Co., St. Louis, Mo., USA). At an OD600 about 0.3 to about 0.5, protein expression was induced with 0.5 mM isopropyl-β-D-thiogalactopyranoside (IPTG), and cells were subsequently grown at 25° C. for about 16 h. Cells were collected by centrifugation and resuspended in the Bugbuster® Master Mix (EMD Millipore Chemicals catalog number 71456-4), supplemented with protease inhibitors, 1 mM diethiothreitol (DTT) and 20 mM imidazole. The His6-tagged fusion proteins were isolated on Ni^2+-chelating resins (Ni-NTA Superflow, Qiagen catalog number 30410) by standard procedures. […]

DnaK SBD = molecular target: T4, DnaK SBD (Escherichia coli, UniProt P0A6Y8); assay: ITC binding to DnaK SBD; set-up: species or system E. coli; conditions: in words
T4 construct: The titrations involving the purified HSP70 (aa 386-616) and DnaK (aa 393-507) were performed at 42° C; His6 (N); made in house; host or cells: E. coli BL21 Star (DE3)
Protocol: as §1
The titrations involving the full-length purified proteins were performed at 25° C. with injection volumes of 12 μL and a spacing of 300 s. The titrations involving the purified HSP70 (aa 386-616) and DnaK (aa 393-507) were performed at 42° C. with injection volumes of 12 μL and a spacing of 300 s. Heat from the pre-injection was not used during fitting. The data were fit using a one-site binding model available in the Origin® ITC data analysis software (MicroCal Origin® V5.0, MicroCal Software, Northampton, Mass.). Error values obtained from the MicroCal Origin® V5.0 software were averaged and reported.

tumor cells = assay: Cytotoxic effect on tumor cells; assay type: cell-based; conditions: in words
From the text: FIGS. 1A to 1G provide the PET-16 and analogs thereof. FIGS. 1A-1C provide the chemical structures of PES, Biotin-PES, and PES-Cl, respectively. The chemical names and the major functional groups are indicated. […] The chemical names are indicated. FIGS. 1E-1G are the chemical structures of PET-16, PET-3C and PET-DR, respectively. The chemical names and the major functional groups are indicated.

E. coli DH5α = assay: Growth of E. coli DH5α at 43° C.; assay type: cell-based; conditions: 6 h at 43° C.
Protocol: FIGS. 2A-2D illustrate the cytotoxicity of PET-16 to human tumor cells and its inhibition on E. coli growth. FIG. 2A is a line graph with data obtained from MTT assays of human melanoma cell lines treated with the indicated concentrations of PES or PET-16 for 72 h. The corresponding cell survival is normalized to vehicle (DMSO) treatment. Average and standard deviation (s.d.) from three independent experiments are shown. FIG. 2B are bar graphs of human melanoma (A875) cells and nontransformed human (IMR90) fibroblasts that were treated with DMSO, 10 μM PES or 10 μM PET-16 for 24 h. […] FIG. 2C is a line graph illustrating the growth of E. coli DH5α treated with different concentrations of PES or PET-16 for 6 h at 43° C. Error bars represent the s.d. of four independent experiments. FIG. 2D is a bar graph illustrating the growth of E. coli DH5α treated with DMSO, 30 μM PET-16 or 30 μM TPP for 6 h at 43° C. Error bars represent the s.d. of four independent experiments.
FIGS. 9A-9H illustrate that PET-16 binds directly to ADP-bound HSP70 and is cytotoxic to human tumor cells. FIGS. 9A-9C are ITC assays of the interaction of PET-3C with purified human HSP70-ADP (A), human HSP70-ATP (B) and DnaK-ADP (C) proteins. The data are representative of three independent experiments. FIG. 9D is a line graph of an MTT assay of the human melanoma cell line 1205 Lu treated with the indicated concentrations of PET-16 (---) or PET-3C (-) for 72 h. The corresponding cell survival is normalized to the DMSO-treatment. Average and standard deviation (s.d.) from three independent experiments are shown. FIG. 9E is a line graph illustrating the growth of E. coli DH5α strain treated with different concentrations of PET-16 (black) or PET-3C (gray) for 6 h at 43° C. Error bars represent the s.d. of four independent experiments. FIG. 9F is a bar graph illustrating the growth of E. coli DH5α treated with DMSO, 30 μM PET-16, 30 μM PET-3C or 30 μM TPP for 6 h at 43° C. Error bars represent the s.d. of four independent experiments. […]

T1 sequence (P0DMV8 whole entry E110D, the tested form may be a part): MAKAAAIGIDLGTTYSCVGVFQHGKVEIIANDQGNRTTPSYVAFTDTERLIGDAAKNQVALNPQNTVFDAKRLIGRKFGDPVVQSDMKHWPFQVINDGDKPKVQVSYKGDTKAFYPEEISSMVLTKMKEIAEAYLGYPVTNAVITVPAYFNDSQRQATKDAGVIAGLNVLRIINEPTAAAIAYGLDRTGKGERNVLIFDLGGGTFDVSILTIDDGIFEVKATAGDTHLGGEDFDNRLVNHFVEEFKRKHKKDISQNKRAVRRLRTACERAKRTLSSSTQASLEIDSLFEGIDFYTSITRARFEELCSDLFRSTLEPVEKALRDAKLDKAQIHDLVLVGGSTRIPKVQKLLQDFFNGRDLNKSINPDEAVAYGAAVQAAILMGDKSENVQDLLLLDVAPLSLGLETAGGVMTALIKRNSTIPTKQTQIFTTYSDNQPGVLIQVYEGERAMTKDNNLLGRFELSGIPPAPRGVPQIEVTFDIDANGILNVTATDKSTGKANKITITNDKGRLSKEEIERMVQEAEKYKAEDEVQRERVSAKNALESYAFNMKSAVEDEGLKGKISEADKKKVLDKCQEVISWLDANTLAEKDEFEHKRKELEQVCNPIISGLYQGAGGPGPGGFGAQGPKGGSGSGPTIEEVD
T2 sequence (P0DMV8 whole entry E110D, the tested form may be a part): as above
T4 sequence (P0A6Y8 393-507): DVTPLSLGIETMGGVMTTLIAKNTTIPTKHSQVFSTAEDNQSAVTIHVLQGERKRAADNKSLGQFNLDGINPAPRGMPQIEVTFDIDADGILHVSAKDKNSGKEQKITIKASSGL
T3 sequence (P0DMV8 386-616): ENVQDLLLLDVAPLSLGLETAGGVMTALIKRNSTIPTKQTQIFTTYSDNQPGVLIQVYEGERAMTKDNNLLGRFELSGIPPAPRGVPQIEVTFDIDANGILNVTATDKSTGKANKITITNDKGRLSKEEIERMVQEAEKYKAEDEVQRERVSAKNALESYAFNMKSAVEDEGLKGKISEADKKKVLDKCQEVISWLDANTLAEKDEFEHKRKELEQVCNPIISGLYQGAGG

## CC(C)C[C@H](NC(=O)[C@H](CC(C)C)NC(=O)[C@H](CCCNC(=N)N)NC(=O)[C@@H](N)CC(N)=O)C(=O)N[C@@H](CC(C)C)C(=O)N[C@H](C(=O)NCC(=O)O)[C@@H](C)O [NRLLLTG, reference compound]
ADP-HSP70 (WT, aa 1-641)
  Kd: ~10 µM and 10 µM
ATP-HSP70 (WT)
  Kd: 1250 ± 15 µM

## 2-(3-chlorophenyl) ethynesulfonamide [PES-Cl, reference compound]
[1]
  synergy with PLX4032 (Vemurafenib): did not synergize

## c1ccc(P(c2ccccc2)c2ccccc2)cc1 [TPP, triphenylphosphine]
HSP70 (aa 386-616)
  binding to HSP70 SBD: does not bind
DnaK SBD
  binding to DnaK SBD: does not bind
Tumor cells
  cytotoxicity for tumor cells: little discernible effect
E. coli DH5α
  effect on growth of E. coli: no negative effect
